Assay results from PubChem BioAssay (NCI).
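Five concentrations, 48 hours, 96-well plates. Here, GI50 denotes the concentration required for 50% inhibition of growth. The concentration for full growth arrest is given as TGI.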

Test system: SN12K1 renal
Experiment: NCI-60 cell line screen, 48 h

Structure (SMILES): COc1cccc2c1C(=O)c1c(O)c3c(c(O)c1C2=O)C[C@@](O)(C(C)=O)C[C@@H]3OC1CC(O)C(O)C(C)O1 (some centres not stated)
- GI50: 333 nM
- TGI: 4960 nM
